The numbers were not newly measured in US7259160B2, “Hexahydrodiazepinones as dipeptidyl peptidase-IV inhibitors for the treatment or prevention of diabetes” (Merck & Co., Inc., priority 2003, dated 2007), which cites them from elsewhere.

In one series the test system is hematopoiesis. Particulars: mouse, cyclophosphamide-induced neutropenia.
For the next series, the target named is T1, DPP-IV (Homo sapiens, UniProt P27487).
T1 construct: GRF is rapidly degraded in plasma to GRF[344]
T1 sequence (P27487 whole entry, species assumed): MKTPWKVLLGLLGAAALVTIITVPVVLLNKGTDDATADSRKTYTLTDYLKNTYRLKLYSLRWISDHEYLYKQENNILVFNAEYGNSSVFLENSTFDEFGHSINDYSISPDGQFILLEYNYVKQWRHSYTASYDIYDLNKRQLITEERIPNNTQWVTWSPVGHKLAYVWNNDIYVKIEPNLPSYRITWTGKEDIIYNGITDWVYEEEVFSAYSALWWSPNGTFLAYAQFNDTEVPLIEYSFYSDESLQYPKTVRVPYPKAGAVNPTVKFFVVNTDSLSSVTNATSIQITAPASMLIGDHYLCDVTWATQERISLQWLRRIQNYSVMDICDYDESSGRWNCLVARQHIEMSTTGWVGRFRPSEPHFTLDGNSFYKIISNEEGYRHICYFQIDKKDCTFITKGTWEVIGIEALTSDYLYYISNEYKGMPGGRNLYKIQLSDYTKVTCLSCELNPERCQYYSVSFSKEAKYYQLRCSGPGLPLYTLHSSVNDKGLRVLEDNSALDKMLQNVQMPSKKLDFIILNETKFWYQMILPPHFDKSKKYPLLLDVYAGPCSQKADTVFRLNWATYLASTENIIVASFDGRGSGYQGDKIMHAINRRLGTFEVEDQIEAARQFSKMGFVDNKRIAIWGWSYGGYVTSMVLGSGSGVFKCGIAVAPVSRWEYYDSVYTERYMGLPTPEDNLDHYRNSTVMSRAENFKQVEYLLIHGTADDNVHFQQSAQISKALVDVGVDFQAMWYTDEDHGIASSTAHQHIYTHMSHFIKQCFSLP

Regarding `CC(C)[C@H](N)C(=O)N1CCC[C@H]1B(O)O` [Val-Boro-Pro], in the series on hematopoiesis, the hematopoiesis entry is “stimulated hematopoiesis”.
As for diprotin A, the “degradation of GRF in plasma” value at DPP-IV is recorded as “prevented”.
